Test results taken from patent US20060014712A1, “Controlled delivery of therapeutic compounds” (CeMines, Inc., priority 2004, published 2006).

Columns and labels:
[1] = system: Dct/Trp2 promoter; assay: Transient CAT assay, Dct/Trp2 proximal promoter-CAT construct in WM 266-4; assay type: cell-based, human; conditions: CPP concentration 10 μM
Procedure: (§1) SOX10 and MITF interact with the proximal promoter of Dct/Trp2 gene and induces its activity (Ludwig A. et al., FEBS Lett. 556 (1-3):236-244 (2004)). Thus, a Dct/Trp2 proximal promoter reporter construct was used to analyze effect of mimicking peptides on promoter activity using transient CAT assay.
(§2) Methods. Human melanoma cell lines SK-MEL-28 and WM 266-4 were obtained from the American Tissue Culture Collection (ATCC) and were cultured according to recommendations of ATCC (DMEM, 10% FCS, penicillin+streptomycin). Dct/Trp2 proximal promoter-CAT construct (Ludwig et al., supra) was used in all experiments.
(§3) Cells were transfected by using FuGene reagent (Roche Molecular Biochemicals) according to manufacturer's instructions. Freeze-thaw lysates of cells collected 48 h after the transfection were assayed for CAT activity as described (Pothier, F. et al., DNA Cell Biol. 11(1):83-90 (1992)). At least two different DNA preparations were tested for each plasmid. To normalize the transfection efficiencies, cells were cotransfected with pON260 expressing β-galactosidase (Spaete, R. R. and Mocarski, E. S., J. Virol. 54(3):817-24 (1985); Spaete, R. R. and Mocarski, E. S., J. Virol. 56(1):13543 (1985)). All the CAT activities were normalized to total protein and β-galatosidase activity.
(§4) Following transfection, cells were grown in 6 well plates, each treatment in triplicates. Peptides were added to the media and media was changed every day during the 7 day experiment. CPP concentration was 10 μM.

[2] = system: Dct/Trp2 promoter; assay: Transient CAT assay, Dct/Trp2 proximal promoter-CAT construct in SK-MEL-28; assay type: cell-based, human; conditions: CPP concentration 10 μM
Procedure: as §1, §2, §3, §4

[3] = system: B16; assay: Cell counting after 7 day peptide treatment; assay type: cell-based, mouse; conditions: CPP mimicking peptides, conc 10 µM, start count 10
Procedure: The ability to block interaction of MITF, SOX10 and STAT3 with active transcriptional complex and inhibit proliferation and stimulate apoptosis of melanoma cells were tested on human melanoma cell lines SK-MEL-28 and WM 266-4, and mouse melanoma cell line B16. Methods. Human melanoma cell lines SK-MEL-28 and WM 2664 and mouse melanoma cell line B16 were obtained from the American Tissue Culture Collection (ATCC). Cells were cultured according to recommendations of ATCC (DMEM, 10% FCS, penicillin+streptomycin) and used in experiments after two passages in the laboratory. Cells were grown in 24 well plates, each treatment in triplicates. Cells were plated 16 hours prior treatments started. Peptides were added to the media, and media was changed every day during 7 day experiment. […] Cells were precipitated and resuspended in 100 μl of PBS, and 5 μl were removed for counting

[4] = system: SK-MEL-28; assay: Cell counting after 7 day peptide treatment; assay type: cell-based, human; conditions: conc 10 µM, start count 10
Procedure: (§5) The ability to block interaction of MITF, SOX10 and STAT3 with active transcriptional complex and inhibit proliferation and stimulate apoptosis of melanoma cells were tested on human melanoma cell lines SK-MEL-28 and WM 266-4, and mouse melanoma cell line B16. Methods. Human melanoma cell lines SK-MEL-28 and WM 2664 and mouse melanoma cell line B16 were obtained from the American Tissue Culture Collection (ATCC). Cells were cultured according to recommendations of ATCC (DMEM, 10% FCS, penicillin+streptomycin) and used in experiments after two passages in the laboratory. Cells were grown in 24 well plates, each treatment in triplicates. Cells were plated 16 hours prior treatments started. Peptides were added to the media, and media was changed every day during 7 day experiment. CPP concentration was 10 μM For cell counting, cells were trypsinized (0.25% Trypsin, 2 mM EDTA) in Ca^+2, Mg^+2 free PBS. Cells were precipitated and resuspended in 100 μl of PBS, and 5 μl were removed for counting Methods. Human melanoma cell lines SK-MEL-28 and WM 266-4 were obtained from the American Tissue Culture Collection (ATCC) and were cultured according to recommendations of ATCC (DMEM, 10% FCS, penicillin+streptomycin). Human keratinocytes were obtained from Clonetics and cultured according to manufacturers protocol. Cells were used in experiments after two passages in the laboratory. Cells were grown in 24 well plates, each treatment in triplicates. Cells were plated 16 hours prior treatments started. Peptides were added to the media, and media was changed every day during 7 day experiment. CPP concentration was 10 μM. For cell counting, cells were trypsinized (0.25% Trypsin, 2 mM EDTA) in Ca, Mg free PBS. Cells were precipitated and resuspended in 100 μl of PBS, and 5 μl were removed for counting.

[5] = system: WM 266-4; assay: WST-1 test (mitochondrial activity); assay type: cell-based, human; conditions: conc 10 µM, untreated = 1
Procedure: Methods. Human melanoma cell lines SK-MEL-28 and WM 2664 and mouse melanoma cell line B16 were obtained from the American Tissue Culture Collection (ATCC). Cells were cultured according to recommendations of ATCC (DMEM, 10% FCS, penicillin+streptomycin) and used in experiments after two passages in the laboratory. Cells were grown in 24 well plates, each treatment in triplicates. Cells were plated 16 hours prior treatments started. Peptides were added to the media, and media was changed every day during 7 day experiment. […] Methods. Human melanoma cell lines SK-MEL-28 and WM 266-4 were obtained from the American Tissue Culture Collection (ATCC) and were cultured according to recommendations of ATCC (DMEM, 10% FCS, penicillin+streptomycin). Human keratinocytes were obtained from Clonetics and cultured according to manufacturers protocol. Cells were used in experiments after two passages in the laboratory. Cells were grown in 24 well plates, each treatment in triplicates. Cells were plated 16 hours prior treatments started. Peptides were added to the media, and media was changed every day during 7 day experiment. […] WST-1 test was performed to measure mitochondrial activity, which can also be used as a measure of cell number.

[6] = system: WM 266-4; assay: Cell counting after 7 day peptide treatment; assay type: cell-based, human; conditions: CPP mimicking peptides, conc 10 µM, start count 10
Procedure: as §5, with “CPP concentration was 10 μM For cell counting, cells were trypsinized (0.25% Trypsin, 2 mM EDTA) in Ca^+2, Mg^+2 free PBS.” left out, “CPP concentration was 10 μM.” left out

[7] = system: SK-MEL-28; assay: WST-1 test (mitochondrial activity); assay type: cell-based, human; conditions: conc 10 µM, untreated = 1
[8] = system: B16; assay: WST-1 test (mitochondrial activity); assay type: cell-based, mouse; conditions: CPP mimicking peptides, conc 10 µM, untreated = 1
Procedure: Methods. Human melanoma cell lines SK-MEL-28 and WM 2664 and mouse melanoma cell line B16 were obtained from the American Tissue Culture Collection (ATCC). Cells were cultured according to recommendations of ATCC (DMEM, 10% FCS, penicillin+streptomycin) and used in experiments after two passages in the laboratory. Cells were grown in 24 well plates, each treatment in triplicates. Cells were plated 16 hours prior treatments started. Peptides were added to the media, and media was changed every day during 7 day experiment. […]

[9] = system: WM 266-4; assay: Apoptosis, Annexin V-Cy3 Apoptosis Kit; assay type: cell-based, human; conditions: modified peptides, conc 10 µM
Procedure: Methods. Human melanoma cell lines SK-MEL-28 and WM 2664 and mouse melanoma cell line B16 were obtained from the American Tissue Culture Collection (ATCC). Cells were cultured according to recommendations of ATCC (DMEM, 10% FCS, penicillin+streptomycin) and used in experiments after two passages in the laboratory. Cells were grown in 24 well plates, each treatment in triplicates. Cells were plated 16 hours prior treatments started. Peptides were added to the media, and media was changed every day during 7 day experiment. […] Methods. Human melanoma cell lines SK-MEL-28 and WM 266-4 were obtained from the American Tissue Culture Collection (ATCC) and were cultured according to recommendations of ATCC (DMEM, 10% FCS, penicillin+streptomycin). Human keratinocytes were obtained from Clonetics and cultured according to manufacturers protocol. Cells were used in experiments after two passages in the laboratory. Cells were grown in 24 well plates, each treatment in triplicates. Cells were plated 16 hours prior treatments started. Peptides were added to the media, and media was changed every day during 7 day experiment. […] Apoptosis was analyzed using Biovision Annexin V-Cy3 Apoptosis Kit according to manufacturers protocols.

[10] = system: Human keratinocytes; assay: Cell counting after 7 day peptide treatment; assay type: cell-based; conditions: keratinocyte, modified peptides, conc 10 µM, start count 10
Procedure: Methods. Human melanoma cell lines SK-MEL-28 and WM 266-4 were obtained from the American Tissue Culture Collection (ATCC) and were cultured according to recommendations of ATCC (DMEM, 10% FCS, penicillin+streptomycin). Human keratinocytes were obtained from Clonetics and cultured according to manufacturers protocol. Cells were used in experiments after two passages in the laboratory. Cells were grown in 24 well plates, each treatment in triplicates. Cells were plated 16 hours prior treatments started. Peptides were added to the media, and media was changed every day during 7 day experiment. CPP concentration was 10 μM. For cell counting, cells were trypsinized (0.25% Trypsin, 2 mM EDTA) in Ca, Mg free PBS. Cells were precipitated and resuspended in 100 μl of PBS, and 5 μl were removed for counting.

[11] = system: Human keratinocytes; assay: Apoptosis, Annexin V-Cy3 Apoptosis Kit; assay type: cell-based; conditions: keratinocyte, modified peptides, conc 10 µM
[12] = system: B16 melanoma; assay: Mouse tumor xenograft model, peptide membrane patch on skin melanoma; assay type: in vivo; conditions: patch immersed in 100 μM peptide solution, start = 100
Procedure: The effect of modified mimicking peptides was analyzed by inducing melanomas in mouse skin by grafting suspension of melanoma cells. […] Tumor diameter was measured 1, 2, 3, 5, 7 days after treatmet started.
Methods. Mouse melanoma cell line B16 was cultured as described above, and approximately 5×10^6 cells were injected subcutaneously into the left and right limbs of three C57BL/6JOIaHsd mice.
Administration. Cellulose membrane was immersed in a solution of peptides (100 μM). Size of tumor was measured 1, 2, 3, 5 and 7 days following patch treatment. At the same time new patch was applied. All experiments were done in triplicates (3 animals per group).

[13] = system: Human keratinocytes; assay: WST-1 test (mitochondrial activity); assay type: cell-based; conditions: keratinocyte; modified peptides; conc 10 µM; untreated = 1
Procedure: Methods. Human melanoma cell lines SK-MEL-28 and WM 266-4 were obtained from the American Tissue Culture Collection (ATCC) and were cultured according to recommendations of ATCC (DMEM, 10% FCS, penicillin+streptomycin). Human keratinocytes were obtained from Clonetics and cultured according to manufacturers protocol. Cells were used in experiments after two passages in the laboratory. Cells were grown in 24 well plates, each treatment in triplicates. Cells were plated 16 hours prior treatments started. Peptides were added to the media, and media was changed every day during 7 day experiment. […] WST-1 test was performed to measure mitochondrial activity, which can also be used as a measure of cell number.

Row | Sequence | Dct/Trp2 promoter activity (CAT assay) [1] | Dct/Trp2 promoter activity (CAT assay) [2] | Cell Count 7 d [3] | Cell Count 7 d ([4]; CPP mimicking peptides) | WST-1 7 d ([5]; CPP mimicking peptides) | Cell Count 7 d [6] | WST-1 7 d ([7]; CPP mimicking peptides) | WST-1 7 d [8] | Cell Count 7 d ([4]; modified (inhibitor/MMP2, MMP9 site) peptides) | Apoptosis 7 d/% [9] | Cell Count 7 d [10] | Apoptosis 7 d/% [11] | WST-1 7 d ([5]; modified peptides) | WST-1 7 d ([7]; modified peptides) | tumor size change (%) 1 d ([12]; 1 d, B16 s.c. in C57BL/6 mice) | tumor size change (%) 2 d ([12]; 2 d) | tumor size change (%) 3 d ([12]; 3 d) | tumor size change (%) 5 d ([12]; 5 d) | tumor size change (%) 7 d ([12]; 7 d) | WST-1 7 d [13]
1 | RPKKRKVRRRQLMLEPYALDMSRIRVLSESLGLATQSG [Scr-int1, reference compound] | do not have significant effect | do not have significant effect | 83 | 53 | 1 | 41 | 1 | 1.1 |  |  |  |  |  |  |  |  |  |  |  | 
2 | TTGGSSPQGLEAKRPKKRKVRRRKMQQLEQMLTALDQMRRSIVSELAGLLS [STAT3-int1M] |  |  |  |  |  |  |  |  | 42 | 13% | 41 | 2% | 0.91 | 0.84 | 109% | 124% | 154% | 181% | 217% | 1
